The values that follow come from ChEMBL document CHEMBL3860107, “Discovery of [5-Amino-1-(2-methyl-3H-benzimidazol-5-yl)pyrazol-4-yl]-(1H-indol-2-yl)methanone (CH5183284/Debio 1347), An Orally Available and Selective Fibroblast Growth Factor Receptor (FGFR) Inhibitor” (J Med Chem, 2016).

≈ marks a conversion by molar mass, not a printed value. Calls of active or inactive are those of the source. No cut-off for these calls is given here. Bounds are passed on as bounds.

Data set [1] concerns the target Fibroblast growth factor receptor 3 (Homo sapiens, UniProt P22607).
Description: Inhibition of human FGFR3 by time-resolved fluorescence or time-resolved fluorescence assay
Data set [2] has as its target Fibroblast growth factor receptor 1 (Homo sapiens, UniProt P11362).
Description: Inhibition of human FGFR1 by time-resolved fluorescence or time-resolved fluorescence assay
Data set [3] addresses Fibroblast growth factor receptor 4 (Homo sapiens, UniProt P22455). The experiment in a line: Inhibition of human FGFR4 by time-resolved fluorescence or time-resolved fluorescence assay.
The target in data set [4] is Vascular endothelial growth factor receptor 2 (Homo sapiens, UniProt P35968). Nature of the data set: Inhibition of human KDR by time-resolved fluorescence or time-resolved fluorescence assay.
Data set [5] is described as follows: Antiproliferative activity against human SNU16 cells incubated for 4 days by CCK8 assay. Particulars: SNU-16, 96 h. In kind it is functional, cell-based.
The next data set in a line: cells. Particulars: Homo sapiens, HCT-116, 96 h.
Data set [6] in a line: Solubility in FaSSIF at pH 6.5 irradiated ultrasonically for 10 mins and shaken for 2 hrs followed by centrifugation for 10 mins by HPLC-UV method. In kind it is physicochemical.
Data set [7] can be described thus: Intrinsic clearance in human liver microsomes at 1 uM in presence of NADPH incubated for 30 mins by LC/MS method. In kind it is ADME. Particulars: read-out: CLH.
Data set [8] addresses Voltage-gated inwardly rectifying potassium channel KCNH2 (Homo sapiens, UniProt Q12809). Nature of the data set: Inhibition of human ERG expressed in CHO cells assessed as reduction in channel currents at -80 mV holding potential by automated whole-cell patch clamp method.
A further data set concerns the target hERG (KCNH2) (Homo sapiens, UniProt Q12809). Nature of the data set: Inhibition of human ERG expressed in CHO cells assessed as reduction in channel currents at 10 uM at -80 mV holding potential by automated whole-cell patch clamp method. The following applies: CHO cells that express hERG.
Data set [9] can be described thus: Oral bioavailability cynomolgus monkey at 1 mg/kg by LC-MS/MS method. It counts as ADME, organism-based, Macaca fascicularis. Particulars: in vivo.
Data set [10] has as its target Proto-oncogene tyrosine-protein kinase Src (Homo sapiens, UniProt P12931). Nature of the data set: Inhibition of human SRC by time-resolved fluorescence or time-resolved fluorescence assay.
A short description of data set [11]: Cardiotoxicity in Langendorff's isolated guinea pig heart perfusion model in assessed as induction of QTc prolongation. It counts as toxicity, tissue-based, Cavia porcellus.
Data set [12] is filed under the species Rattus norvegicus. The experiment in a line: Cardiotoxicity in rat assessed as effect on blood pressure. In kind it is toxicity, organism-based.
Data set [13] deals with Rattus norvegicus. Nature of the data set: Cardiotoxicity in telemetry instrumented rat assessed as effect on blood pressure at 30 mg/kg. In kind it is toxicity, organism-based. Particulars: in vivo.
The subject of another data set is Mus musculus. The experiment in a line: Toxicity in human SNU16 cells xenografted CAnN.Cg-Foxn1 (nu)/CrlCrlj nu/nu BALB nu/nu mouse assessed as induction of body weight loss at 30 and 100 mg/kg, po qd for 11 days. In kind it is organism-based, SNU-16. Particulars: in vivo, 264 h.
Data set [14] can be described thus: Cardiotoxicity in monkey assessed as effect on blood pressure. In kind it is toxicity, Macaca mulatta. Particulars: rhesus monkey.
Data set [15] is described as follows: AUC in rat at 30 mg/kg. It counts as ADME, organism-based. Particulars: in vivo.
A short description of data set [16]: Permeability from apical to basolateral side in human Caco2 cells at 10 uM incubated for 120 mins by LC-MS/MS method. In kind it is ADME, cell-based. Particulars: Caco-2, read-out: permeability.
Data set [17] in a line: Antitumor activity against human SNU16 cells xenografted in CAnN.Cg-Foxn1 (nu)/CrlCrlj nu/nu BALB nu/nu mouse assessed as tumor growth inhibition at 100 mg/kg, po qd for 11 days. It counts as functional. Particulars: SNU-16, po, 264 h, read-out: TGI.
A further data set relates to MFE-280. The following applies: Homo sapiens.
Data set [18] is described as follows: Antitumor activity against human SNU16 cells xenografted in CAnN.Cg-Foxn1 (nu)/CrlCrlj nu/nu BALB nu/nu mouse assessed as tumor growth inhibition at 30 mg/kg, po qd for 11 days. Particulars: SNU-16, po, 264 h, read-out: TGI. It counts as functional.
The next data set relates to RT112/84. Particulars: Homo sapiens.
The test system of the next data set is SNU-16. Particulars: Homo sapiens.
A further data set deals with KG-1. Particulars: Homo sapiens.
The test system of a further data set is UM-UC-14. The following applies: Homo sapiens.

hERG (KCNH2), sequence (Q12809 whole entry): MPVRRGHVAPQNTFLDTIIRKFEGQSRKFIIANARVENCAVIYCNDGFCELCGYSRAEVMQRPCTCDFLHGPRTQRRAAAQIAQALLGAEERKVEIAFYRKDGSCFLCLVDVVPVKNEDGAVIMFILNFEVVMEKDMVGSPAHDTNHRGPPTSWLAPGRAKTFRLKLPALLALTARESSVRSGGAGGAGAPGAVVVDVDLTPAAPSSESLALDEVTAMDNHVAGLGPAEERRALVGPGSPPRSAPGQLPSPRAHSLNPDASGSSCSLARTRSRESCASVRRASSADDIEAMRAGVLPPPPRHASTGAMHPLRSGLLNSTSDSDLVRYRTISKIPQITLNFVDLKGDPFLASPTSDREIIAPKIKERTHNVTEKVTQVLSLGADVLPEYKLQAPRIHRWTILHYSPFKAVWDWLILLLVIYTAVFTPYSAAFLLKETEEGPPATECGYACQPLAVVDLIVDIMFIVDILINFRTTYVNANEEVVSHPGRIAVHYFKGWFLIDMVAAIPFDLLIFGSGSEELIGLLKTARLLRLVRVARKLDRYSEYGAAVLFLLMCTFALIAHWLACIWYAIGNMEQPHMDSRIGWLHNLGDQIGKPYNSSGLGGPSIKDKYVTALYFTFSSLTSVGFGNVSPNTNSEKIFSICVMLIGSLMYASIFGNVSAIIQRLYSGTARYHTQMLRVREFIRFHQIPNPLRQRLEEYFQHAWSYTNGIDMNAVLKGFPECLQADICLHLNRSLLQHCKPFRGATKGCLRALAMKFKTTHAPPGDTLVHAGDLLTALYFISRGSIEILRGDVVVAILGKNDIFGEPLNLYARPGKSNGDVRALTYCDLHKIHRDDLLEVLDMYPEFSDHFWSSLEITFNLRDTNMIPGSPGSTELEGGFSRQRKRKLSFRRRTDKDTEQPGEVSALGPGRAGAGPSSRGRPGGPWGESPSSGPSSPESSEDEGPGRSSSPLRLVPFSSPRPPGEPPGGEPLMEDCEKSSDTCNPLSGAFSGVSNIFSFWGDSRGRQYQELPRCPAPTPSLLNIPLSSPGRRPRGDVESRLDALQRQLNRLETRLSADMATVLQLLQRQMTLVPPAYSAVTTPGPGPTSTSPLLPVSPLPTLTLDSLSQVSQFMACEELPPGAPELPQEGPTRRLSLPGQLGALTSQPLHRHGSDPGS
Voltage-gated inwardly rectifying potassium channel KCNH2, sequence (Q12809 whole entry): as above
Proto-oncogene tyrosine-protein kinase Src, sequence (P12931 2-536 limits assumed): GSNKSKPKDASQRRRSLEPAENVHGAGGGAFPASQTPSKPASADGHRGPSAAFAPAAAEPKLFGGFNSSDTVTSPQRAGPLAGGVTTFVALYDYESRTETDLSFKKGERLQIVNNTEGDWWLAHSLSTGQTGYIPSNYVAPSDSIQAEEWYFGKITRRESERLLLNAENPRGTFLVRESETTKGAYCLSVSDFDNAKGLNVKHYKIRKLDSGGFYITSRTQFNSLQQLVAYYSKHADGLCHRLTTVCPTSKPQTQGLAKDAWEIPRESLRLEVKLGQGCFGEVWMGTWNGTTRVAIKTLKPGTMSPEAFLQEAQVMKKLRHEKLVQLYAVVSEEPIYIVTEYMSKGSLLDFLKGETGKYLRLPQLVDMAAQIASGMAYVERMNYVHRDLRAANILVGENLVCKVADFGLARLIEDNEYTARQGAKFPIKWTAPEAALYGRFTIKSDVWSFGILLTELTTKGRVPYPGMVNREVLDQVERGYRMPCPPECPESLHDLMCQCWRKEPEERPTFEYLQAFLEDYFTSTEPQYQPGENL
Vascular endothelial growth factor receptor 2, sequence (P35968 whole entry): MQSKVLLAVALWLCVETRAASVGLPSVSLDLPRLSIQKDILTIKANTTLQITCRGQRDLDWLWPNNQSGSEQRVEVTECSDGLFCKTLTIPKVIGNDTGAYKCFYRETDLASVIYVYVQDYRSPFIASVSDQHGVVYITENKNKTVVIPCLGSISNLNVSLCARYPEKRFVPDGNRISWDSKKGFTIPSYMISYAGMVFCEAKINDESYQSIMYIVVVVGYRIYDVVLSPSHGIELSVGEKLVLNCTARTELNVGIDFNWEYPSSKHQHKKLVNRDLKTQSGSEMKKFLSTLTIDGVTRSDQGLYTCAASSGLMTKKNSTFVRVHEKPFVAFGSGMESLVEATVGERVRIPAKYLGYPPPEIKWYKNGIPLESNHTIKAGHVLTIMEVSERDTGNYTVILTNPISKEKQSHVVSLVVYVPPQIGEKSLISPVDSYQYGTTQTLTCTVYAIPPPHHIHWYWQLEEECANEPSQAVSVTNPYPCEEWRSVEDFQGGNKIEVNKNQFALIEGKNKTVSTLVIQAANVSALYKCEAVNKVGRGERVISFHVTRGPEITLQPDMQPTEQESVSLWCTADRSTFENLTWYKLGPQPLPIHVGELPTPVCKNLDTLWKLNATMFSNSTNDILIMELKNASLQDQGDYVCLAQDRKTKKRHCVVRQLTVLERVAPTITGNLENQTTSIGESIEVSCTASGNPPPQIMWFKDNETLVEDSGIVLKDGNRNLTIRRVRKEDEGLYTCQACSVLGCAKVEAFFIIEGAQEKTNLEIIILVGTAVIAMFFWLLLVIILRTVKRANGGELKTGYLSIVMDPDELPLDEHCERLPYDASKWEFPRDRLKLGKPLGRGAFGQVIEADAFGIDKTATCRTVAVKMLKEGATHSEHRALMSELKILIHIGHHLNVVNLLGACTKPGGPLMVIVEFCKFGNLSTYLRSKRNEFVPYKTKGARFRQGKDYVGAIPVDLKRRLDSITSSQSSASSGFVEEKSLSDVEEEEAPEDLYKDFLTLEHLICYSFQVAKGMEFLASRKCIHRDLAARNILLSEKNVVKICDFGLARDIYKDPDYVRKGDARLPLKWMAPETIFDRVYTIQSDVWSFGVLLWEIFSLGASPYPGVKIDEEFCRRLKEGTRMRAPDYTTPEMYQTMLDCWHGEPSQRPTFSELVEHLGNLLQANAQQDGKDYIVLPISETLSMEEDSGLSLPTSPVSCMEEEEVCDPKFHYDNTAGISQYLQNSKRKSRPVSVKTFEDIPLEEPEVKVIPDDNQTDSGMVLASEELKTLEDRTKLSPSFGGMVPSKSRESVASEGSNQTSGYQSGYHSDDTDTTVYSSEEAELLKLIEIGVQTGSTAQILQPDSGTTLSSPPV
Fibroblast growth factor receptor 4, sequence (P22455 whole entry): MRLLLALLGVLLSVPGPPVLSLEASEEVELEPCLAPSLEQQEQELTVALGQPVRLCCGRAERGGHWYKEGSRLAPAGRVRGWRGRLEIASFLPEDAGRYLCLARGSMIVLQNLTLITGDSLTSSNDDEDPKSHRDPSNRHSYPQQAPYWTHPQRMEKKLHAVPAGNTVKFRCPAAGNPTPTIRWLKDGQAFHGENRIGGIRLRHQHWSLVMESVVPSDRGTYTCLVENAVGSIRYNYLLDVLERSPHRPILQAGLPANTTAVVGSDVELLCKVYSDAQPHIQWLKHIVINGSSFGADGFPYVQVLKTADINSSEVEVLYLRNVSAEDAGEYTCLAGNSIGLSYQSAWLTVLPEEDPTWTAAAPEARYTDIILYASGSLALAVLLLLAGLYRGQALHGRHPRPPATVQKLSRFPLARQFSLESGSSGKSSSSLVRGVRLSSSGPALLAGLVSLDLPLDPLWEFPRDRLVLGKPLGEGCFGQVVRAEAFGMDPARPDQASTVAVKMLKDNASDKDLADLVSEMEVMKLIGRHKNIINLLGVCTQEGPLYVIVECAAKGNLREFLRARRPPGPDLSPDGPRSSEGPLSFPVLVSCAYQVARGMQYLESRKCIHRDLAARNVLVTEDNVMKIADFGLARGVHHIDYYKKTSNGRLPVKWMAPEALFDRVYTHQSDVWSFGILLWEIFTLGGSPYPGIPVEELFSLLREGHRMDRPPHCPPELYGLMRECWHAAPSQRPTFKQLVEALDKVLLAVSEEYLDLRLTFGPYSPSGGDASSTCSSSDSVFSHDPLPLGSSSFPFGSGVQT
Description for KG-1: Antitumor activity against FGFR1OP-FGFR1 fusion protein expressing human KG1 cells xenografted in mouse
Description for MFE-280: Antitumor activity against FGFR2 S252W mutant expressing human MFE280 cells xenografted in mouse
Description for RT112/84: Antitumor activity against FGFR3-TACC3 mutant expressing human RT112/84 cells xenografted in mouse
Description for UM-UC-14: Antitumor activity against FGFR3 S249C mutant expressing human UM-UC-14 cells xenografted in mouse
Description for cells: Antiproliferative activity against human HCT116 cells incubated for 4 days by CCK8 assay

For the compound `Nc1c(C(=O)c2cc3ccccc3[nH]2)cnn1-c1ccc2[nH]c(=O)[nH]c2c1`, the IC50 in [1] is more than 50 µM; in data set [2], more than 50 µM; in [3], more than 50 µM; in data set [4], 2.7 µM.
In the case of `Nc1c(C(=O)c2cc3ccccc3[nH]2)cnn1-c1ccccc1Cl`, the values for the IC50 (in data set [5]; in the data set “cells”; in data set [4]) were 2.9 µM, 2.7 µM and 0.41 µM, respectively.
Regarding `Nc1c(C(=O)c2cc3cc(CN4CCOCC4)ccc3[nH]2)cnn1-c1cc(O)ccc1Cl`, the figures for the concentration for half-maximal inhibition (IC50) (in [5]; in the data set “cells”; in data set [4]) were 0.55 µM, 3.6 µM and 0.0024 µM, respectively. The compound further displayed a solubility at 2 h in data set [6] of 40 µg/mL (≈ 88.5 µM). In addition, the microsomal CLint at 1 µM in data set [7] is 20 µL/min/mg.
As to `Cc1cccc(C(=O)c2cnn(-c3cc(O)ccc3Cl)c2N)c1`, the IC50 in data set [5] was 15 µM; in “cells” it was more than 20 µM; in data set [4], 2.9 µM.
Turning to `Cc1nc2cc(-n3ncc(C(=O)c4cc5ccc(S(C)(=O)=O)cc5[nH]4)c3N)ccc2[nH]1`, the IC50 was 0.082 µM in data set [5], 37 µM in the data set “cells” and 1 µM in data set [4]. Moreover, in data set [7], the microsomal CLint at 1 µM was determined as 5.4 µL/min/mg.
For the compound `Cc1nc2cc(-n3ncc(C(=O)c4cc5ccc(CN6CCC(F)(F)CC6)cc5[nH]4)c3N)ccc2[nH]1`, the half-maximal inhibitory concentration (IC50) amounted to 8.6 µM in [8], 0.006 µM in data set [5] and 0.28 µM in data set [4]. Further, the inhibition at 10 µM at hERG (KCNH2) was determined as 58%. Besides, the bioavailability in data set [9] amounted to 5%. In addition, in data set [7], the microsomal CLint at 1 µM was determined as 14 µL/min/mg.
`Cc1nc2ccc(-n3ncc(C(=O)c4cc5cc(CN6CCOCC6)ccc5[nH]4)c3N)cc2[nH]1`: the IC50 is more than 10 µM in data set [8], 0.017 µM in [5], 8.9 µM in the data set “cells” and 0.21 µM in data set [4]. The inhibition at 10 µM on hERG (KCNH2) was 7%. Also, the microsomal CLint at 1 µM in data set [7] came to 15 µL/min/mg.
Regarding `Cc1nc2cc(-n3ncc(C(=O)c4cc5ccc(-c6ccccc6)cc5[nH]4)c3N)ccc2[nH]1`, the 50% inhibitory concentration (IC50) was more than 50 µM in data set [10], more than 10 µM in [8], 0.084 µM in data set [5] and 3.4 µM in [4]. Besides, the inhibition at 10 µM at hERG (KCNH2) was 15%. The bioavailability in data set [9] came out at 3%. In addition, the microsomal CLint at 1 µM in data set [7] came out at 3.2 µL/min/mg.
Regarding `Cc1nc2cc(-n3ncc(C(=O)c4cc5ccccc5[nH]4)c3N)ccc2[nH]1` [FGFR INHIBITOR DEBIO 1347], the Activity result (in [11]; in the data set listed under Rattus norvegicus [12]; in the data set with Rattus norvegicus [13]; with Mus musculus; in data set [14]) was “Non-Toxic” each time. Moreover, the concentration for half-maximal inhibition (IC50) was found to be 5.9 µM in [10], 6.9 µM in data set [8], 0.29 µM in [3] and 2.1 µM in data set [4]. The inhibition at 10 µM at hERG (KCNH2) is 69%. Further, in data set [9], the bioavailability was found to be 30%. This compound also displayed a solubility at 2 h in data set [6] of 29 µg/mL (≈ 81.4 µM). In data set [15], this compound registered an AUC of 102 µg·h/mL. The microsomal CLint at 1 µM in [7] was 13 µL/min/mg.
`Cc1ccc2cc(C(=O)c3cnn(-c4ccc5nc(C)[nH]c5c4)c3N)[nH]c2c1`: the IC50 in [8] was found to be 6.9 µM; in the data set “cells” it was 9.7 µM; in data set [4] it was 0.37 µM. Moreover, at hERG (KCNH2), the inhibition at 10 µM was 64%. Besides, the microsomal CLint at 1 µM in data set [7] was 140 µL/min/mg.
As to `Nc1c(C(=O)c2cc3ccccc3o2)cnn1-c1cc(O)ccc1Cl`, the concentration for half-maximal inhibition (IC50) worked out at 3.3 µM in data set [5], 8.2 µM in “cells” and 0.17 µM in data set [4].
`Cc1nc2cc(-n3ncc(C(=O)c4cc5ccc(Br)cc5[nH]4)c3N)ccc2[nH]1`: the half-inhibitory concentration (IC50) is more than 50 µM in data set [10]; more than 10 µM in [8]; 0.052 µM in data set [5]; 11 µM in “cells”; 0.29 µM in [4]. In addition, the Papp A→B at 2 h, 10 µM in [16] turned out to be 2.2 ×10⁻⁶ cm/s. For the same compound, at hERG (KCNH2), the inhibition at 10 µM was 31%. This compound displayed a bioavailability in data set [9] of 20%. In data set [7], the microsomal CLint at 1 µM was determined as 4.2 µL/min/mg.
As to `Cc1cc2cc(-n3ncc(C(=O)c4cc5ccccc5[nH]4)c3N)ccc2[nH]1`, the IC50 was 0.053 µM in [5] and 5.3 µM in “cells”. Further, the solubility at 2 h in data set [6] worked out at 10 µg/mL (≈ 28.1 µM). Also, the microsomal CLint at 1 µM in [7] was 10 µL/min/mg.
For the compound `Nc1c(C(=O)c2cc3ccccc3[nH]2)cnn1-c1cc(O)ccc1Cl`, the IC50 is 0.36 µM in [5], 2.6 µM in “cells” and 0.028 µM in data set [4]. Besides, the solubility at 2 h in data set [6] came to 20 µg/mL (≈ 56.7 µM). Also, in data set [7], the microsomal CLint at 1 µM was determined as 15 µL/min/mg.
Consider `Nc1c(C(=O)c2cc3ccccc3[nH]2)cnn1-c1ccc2[nH]ccc2c1`, for which the concentration for half-maximal inhibition (IC50) in data set [5] was determined as 0.19 µM; in “cells” it was 0.47 µM. The compound further yielded a solubility at 2 h in [6] of 4 µg/mL (≈ 11.7 µM). In addition, the microsomal CLint at 1 µM in data set [7] is 4.4 µL/min/mg.
As to `Nc1c(C(=O)c2cc3ccccc3[nH]2)cnn1-c1ccc2nc[nH]c2c1`, the values for the IC50 (in [5]; in the data set “cells”; in [4]) were 0.38 µM, 17 µM and 0.34 µM, respectively. In data set [6], this compound registered a solubility at 2 h of 37 µg/mL (≈ 108 µM). The microsomal CLint at 1 µM in data set [7] worked out at 4.2 µL/min/mg.
As for `Cc1nc2ccc(-n3ncc(C(=O)c4cc5ccccc5[nH]4)c3N)cc2[nH]1` [FGFR INHIBITOR DEBIO 1347], the inhibition in vivo at 100 mg/kg in data set [17] turned out to be 147%. For the same compound, the TGI result in the data set with MFE-280, with RT112/84, in the data set with KG-1 and in the data set on UM-UC-14 was “Active” each time. For the same compound, the figures for the concentration for half-maximal inhibition (IC50) (in [5]; in “cells”) were 0.017 µM and 5.9 µM, respectively. For the same compound, the inhibition in vivo at 30 mg/kg in [18] was 106%. The AUC with SNU-16 turned out to be 26000 ng·h/mL.
Consider `CCc1nc2cc(-n3ncc(C(=O)c4cc5ccccc5[nH]4)c3N)ccc2[nH]1`, for which the IC50 turned out to be 0.077 µM in data set [5], 1.5 µM in the data set “cells” and 1.7 µM in data set [4]. Besides, the concentration in solution in data set [6] (solubility at 2 h) was 42 µg/mL (≈ 113 µM). Further, the microsomal CLint at 1 µM in data set [7] came to 23 µL/min/mg.
With `Nc1c(C(=O)c2ccc3ncccc3c2)cnn1-c1cc(O)ccc1Cl`, the IC50 in data set [5] stood at 8.9 µM; in the data set “cells”, 9.3 µM; in [4], 1.6 µM.
`Cc1nc2cc(-n3ncc(C(=O)c4cc5ccc(CN6CCOCC6)cc5[nH]4)c3N)ccc2[nH]1`: the results for the IC50 in data set [8], in [5] and in [4] were more than 10 µM, 0.0026 µM and 0.12 µM, respectively. Also, on hERG (KCNH2), the inhibition at 10 µM was 15%. This compound returned a bioavailability in [9] of 0%. In data set [7], the microsomal CLint at 1 µM is 9.6 µL/min/mg.
